Measurements as given in publication PMC5736175, “Nicotinic alpha 7 receptor agonists EVP-6124 and BMS-933043, attenuate scopolamine-induced deficits in visuo-spatial paired associates learning” (PLoS ONE, 2017).
Where “and” joins values, the source holds several entries; their conditions need not be identical. Identical values can stand only once. Entries after “also recorded” stand apart in the source; their conditions may differ. Counter-ions that a name gives are not always drawn.

System: scopolamine-treated cynomolgus monkeys
Assay: Scopolamine-induced impairment of vsPAL task performance, treatment + scopolamine
Type: in vivo, cynomolgus monkeys (Macaca Fasicularis)
Procedure: Doses cited refer to the free base form of the compounds. […] All drugs were administered intramuscularly (i.m.) in a dosing volume of 0.1–0.2 ml/kg.
On days when compound testing occurred, approximately half the cohort received one dose and the remainder another dose of the same compound and therefore dose order was staggered between animals. With the exception of EVP-6124, all other compounds were tested in a single dose response study.
Cohen’s d values of >0.2, >0.5 and >0.8 are described using the conventions of small, medium, and large effects, respectively.

[1] = 0.3 mg/kg + scopolamine vs vehicle+scopolamine, eventual accuracy, 4-stimuli
[2] = Donepezil 0.03 mg/kg + Scopolamine, group MEAN of 6 animals
[3] = Donepezil 0.03 mg/kg + Scopolamine, individual animals
[4] = Donepezil 0.1 mg/kg + Scopolamine, group MEAN of 6 animals
[5] = Donepezil 0.1 mg/kg + Scopolamine, individual animals
[6] = Donepezil 0.3 mg/kg + Scopolamine, group MEAN (one animal without value)
[7] = Donepezil 0.3 mg/kg + Scopolamine, group MEAN of 6 animals
[8] = Donepezil 0.3 mg/kg + Scopolamine, individual animals
[9] = all doses of the study, for EVP-6124 study (1)
[10] = compound 0.03 mg/kg i.m. + Scopolamine
[11] = compound 0.10 mg/kg i.m. + Scopolamine
[12] = compound 0.30 mg/kg i.m. + Scopolamine

Q: For `COc1cc2c(cc1OC)C(=O)C(CC1CCN(Cc3ccccc3)CC1)C2` (centres unmarked) [Donepezil, Donepezil hydrochloride], which “Cohen's d” value [1] is on record?
A: 1.2 and 1.199

Q: What about the effect r [1] of the same molecule?
A: 0.514

Q: What about the “effect on scopolamine-induced impairment of eventual accuracy” value (0.3 mg/kg i.m., 4-stimuli condition) of the same molecule?
A: significantly ameliorated; also recorded: significantly reversed

Q: What about the “mean (cohen's d calculations)” value (0.3 mpk + scop, eventual correct, 4-stimuli condition) of the same molecule?
A: 68.7

Q: And the “% Completion” value [2]?
A: 79.4%

Q: What about the “Average Response Latency” value [2] of the same molecule?
A: 2339.5 ms

Q: What about the “Eventual Correct, 2 Stimuli” value [2] of the same molecule?
A: 100.0%

Q: And the “Eventual Correct, 3 Stimuli” value [2]?
A: 86.7%

Q: And the “Eventual Correct, 4 Stimuli” value [2]?
A: 42.1%

Q: And the “Eventual Correct, Overall Mean % Correct” value [2]?
A: 76.2%

Q: And the “Initial Correct, 3 Stimuli” value [2]?
A: 58.3%

Q: And the “Initial Correct, 4 Stimuli” value [2]?
A: 16.7%

Q: And the “Initial Correct, Overall Mean % Correct” value [2]?
A: 52.2%

Q: What about the “Initial correct, 2 Stimuli” value [2] of the same molecule?
A: 81.7%

Q: And the “% Completion” value [3]?
A: 76.8% and 57.3% and 85.4% and 84.6% and 100.0% and 72.4%

Q: What about the “Average Response Latency” value [3] of the same molecule?
A: 2796.9 ms and 1893.7 ms and 2469.8 ms and 2357.9 ms and 2353.0 ms

Q: And the “Eventual Correct, 2 Stimuli” value [3]?
A: 100.0%

Q: And the “Eventual Correct, 3 Stimuli” value [3]?
A: 90.0% and 80.0% and 50.0% and 100.0%

Q: What about the “Eventual Correct, 4 Stimuli” value [3] of the same molecule?
A: 30.0% and 12.5% and 0.0% and 80.0% and 70.0% and 60.0%

Q: And the “Eventual Correct, Overall Mean % Correct” value [3]?
A: 73.3% and 64.2% and 50.0% and 93.3% and 90.0% and 86.7%

Q: What about the “Initial Correct, 3 Stimuli” value [3] of the same molecule?
A: 50.0% and 70.0% and 40.0% and 60.0% and 90.0%

Q: And the “Initial Correct, 4 Stimuli” value [3]?
A: 10.0% and 0.0% and 30.0%

Q: And the “Initial Correct, Overall Mean % Correct” value [3]?
A: 50.0% and 56.7% and 36.7% and 46.7% and 73.3%

Q: And the “Initial correct, 2 Stimuli” value [3]?
A: 90.0% and 100.0% and 70.0% and 60.0%

Q: And the “% Completion” value [4]?
A: 80.6%

Q: And the “Average Response Latency” value [4]?
A: 2361.5 ms

Q: What about the “Eventual Correct, 2 Stimuli” value [4] of the same molecule?
A: 98.3%

Q: What about the “Eventual Correct, 3 Stimuli” value [4] of the same molecule?
A: 90.0%

Q: And the “Eventual Correct, 4 Stimuli” value [4]?
A: 50.0%

Q: What about the “Eventual Correct, Overall Mean % Correct” value [4] of the same molecule?
A: 79.4%

Q: What about the “Initial Correct, 3 Stimuli” value [4] of the same molecule?
A: 63.3%

Q: And the “Initial Correct, 4 Stimuli” value [4]?
A: 30.0%

Q: And the “Initial Correct, Overall Mean % Correct” value [4]?
A: 57.2%

Q: What about the “Initial correct, 2 Stimuli” value [4] of the same molecule?
A: 78.3%

Q: What about the “% Completion” value [5] of the same molecule?
A: 70.7% and 75.0% and 77.6% and 100.0% and 96.4% and 63.8%

Q: And the “Average Response Latency” value [5]?
A: 2305.7 ms and 2751.0 ms and 1701.8 ms and 2272.3 ms and 2849.3 ms and 2289.1 ms

Q: And the “Eventual Correct, 2 Stimuli” value [5]?
A: 90.0% and 100.0%

Q: What about the “Eventual Correct, 3 Stimuli” value [5] of the same molecule?
A: 60.0% and 90.0% and 100.0%

Q: What about the “Eventual Correct, 4 Stimuli” value [5] of the same molecule?
A: 0.0% and 90.0% and 50.0% and 60.0%

Q: And the “Eventual Correct, Overall Mean % Correct” value [5]?
A: 50.0% and 93.3% and 80.0% and 83.3% and 86.7%

Q: What about the “Initial Correct, 3 Stimuli” value [5] of the same molecule?
A: 90.0% and 80.0% and 40.0% and 20.0% and 70.0%

Q: What about the “Initial Correct, 4 Stimuli” value [5] of the same molecule?
A: 50.0% and 30.0% and 0.0% and 40.0%

Q: And the “Initial Correct, Overall Mean % Correct” value [5]?
A: 76.7% and 70.0% and 36.7% and 63.3% and 33.3%

Q: What about the “Initial correct, 2 Stimuli” value [5] of the same molecule?
A: 90.0% and 100.0% and 70.0% and 50.0%

Q: What about the “Eventual Correct, 4 Stimuli” value [6] of the same molecule?
A: 68.7%

Q: What about the “Initial Correct, 4 Stimuli” value [6] of the same molecule?
A: 28.2%

Q: What about the “Average Response Latency” value [7] of the same molecule?
A: 2371.0 ms

Q: And the “Eventual Correct, 2 Stimuli” value [7]?
A: 98.3%

Q: And the “Eventual Correct, 3 Stimuli” value [7]?
A: 85.0%

Q: What about the “Eventual Correct, Overall Mean % Correct” value [7] of the same molecule?
A: 84.9%

Q: And the “Initial Correct, 3 Stimuli” value [7]?
A: 63.3%

Q: And the “Initial Correct, Overall Mean % Correct” value [7]?
A: 58.4%

Q: What about the “Initial correct, 2 Stimuli” value [7] of the same molecule?
A: 80.0%

Q: And the “% Completion” value [8]?
A: 41.3% and 69.1% and 98.4% and 98.6% and 98.3% and 61.0%

Q: And the “Average Response Latency” value [8]?
A: 2379.3 ms and 1959.4 ms and 2184.7 ms and 2330.5 ms and 2840.5 ms and 2531.9 ms

Q: And the “Eventual Correct, 2 Stimuli” value [8]?
A: 100.0% and 90.0%

Q: And the “Eventual Correct, 3 Stimuli” value [8]?
A: 70.0% and 90.0% and 100.0%

Q: And the “Eventual Correct, 4 Stimuli” value [8]?
A: 60.0% and 80.0% and 90.0% and 33.3%

Q: What about the “Eventual Correct, Overall Mean % Correct” value [8] of the same molecule?
A: 85.0% and 83.3% and 93.3% and 90.0% and 86.7% and 71.1%

Q: What about the “Initial Correct, 3 Stimuli” value [8] of the same molecule?
A: 50.0% and 80.0% and 70.0% and 60.0%

Q: And the “Initial Correct, 4 Stimuli” value [8]?
A: 20.0% and 50.0% and 40.0% and 11.1%

Q: What about the “Initial Correct, Overall Mean % Correct” value [8] of the same molecule?
A: 50.0% and 66.7% and 53.3% and 63.3% and 50.4%

Q: What about the “Initial correct, 2 Stimuli” value [8] of the same molecule?
A: 50.0% and 100.0% and 80.0% and 90.0%

Q: And the “Holm-Sidak Post-Hoc, Treatment+Scopolamine differs from Vehicle+Scopolamine: percent correct on initial attempt, 3-stimuli” value (all doses of the study)?
A: n.s.

Q: What about the “Holm-Sidak Post-Hoc, Treatment+Scopolamine differs from Vehicle+Scopolamine: Choice Response Latency” value [9] of the same molecule?
A: n.s.

Q: And the “Holm-Sidak Post-Hoc, Treatment+Scopolamine differs from Vehicle+Scopolamine: Percent Task Completed” value [9]?
A: n.s.

Q: What about the “Holm-Sidak Post-Hoc, Treatment+Scopolamine differs from Vehicle+Scopolamine: percent correct on initial attempt, 2-stimuli” value [9] of the same molecule?
A: n.s.

Q: What about the “Holm-Sidak Post-Hoc, Treatment+Scopolamine differs from Vehicle+Scopolamine: percent correct on initial attempt, 4 stimuli” value [9] of the same molecule?
A: n.s.

Q: What about the “Percent Correct on Initial Attempt (SEM), 2 stimuli” value (shortened to “Percent Correct … (SEM), 2 stimuli”) [10] of the same molecule?
A: 81.7% (7.0%)

Q: And the “Percent Correct on Initial Attempt (SEM), 3 stimuli” value (from here on “Percent Correct … (SEM), 3 stimuli”) [10]?
A: 58.3% (7.9%)

Q: And the “Percent Correct on Initial Attempt (SEM), 4 stimuli” value (“Percent Correct … (SEM), 4 stimuli” for short) [10]?
A: 16.7% (6.1%)

Q: And the “Percent Correct … (SEM), 2 stimuli” value [11]?
A: 78.3% (7.5%)

Q: What about the “Percent Correct … (SEM), 3 stimuli” value [11] of the same molecule?
A: 63.3% (11.2%)

Q: What about the “Percent Correct … (SEM), 4 stimuli” value [11] of the same molecule?
A: 30.0% (6.8%)

Q: What about the “Percent Correct … (SEM), 2 stimuli” value [12] of the same molecule?
A: 80.0% (6.8%)

Q: What about the “Percent Correct … (SEM), 3 stimuli” value [12] of the same molecule?
A: 63.3% (4.2%)

Q: And the “Percent Correct … (SEM), 4 stimuli” value [12]?
A: 28.2% (7.2%)
